IC50, inhibition and melting point data for 17 compounds are collected here from paper PMC9515202, “Bis-pharmacophore of cinnamaldehyde-clubbed thiosemicarbazones as potent carbonic anhydrase-II inhibitors” (Scientific Reports, 2022).

The structures appear in SMILES notation. A value given as a limit tells only on which side of the number the result lay.

The target of data set [1] is bovine carbonic anhydrase II (bCA-II) (Bos taurus, UniProt P00921). Nature of the data set: Carbonic anhydrase II (CA-II) inhibition, spectrophotometric p-nitrophenyl acetate assay. Type of data set: biochemical. The settings on record: pH 7.4, 25 °C; for IC50: bCA-II, substrate p-NPA, triplicate; for inhibition at 500 µM: pH 7.4, bCA-II, compound at 500 µM, read-out: % Inhibtion (500 µM). How it is done:
Evaluation of carbonic anhydrase inhibition was done by spectrophotometric technique as narrated by Pocker and Meany with little alteration[69],[70] as described previously. The process was carried out in HEPES-Tris buffer (20 mM) having pH 7.4 at 25 °C. Each inhibitory well contained 20 µL of CA-II enzyme solution (0.1 mg/mL HEPES-Tris buffer), 140 µL of HEPES-Tris buffer solution, 20 µL of the compound to be analyzed in HPLC grade DMSO. At 25 °C, the solution mixture was pre-incubated for 15 min. Substrate p-nitrophenyl acetate (p-NPA) (0.7 mM) was prepared in HPLC grade methanol and the reaction was initiated by the addition of 20 µL to a well in a 96-well-plate. The quantity of product formed was measured at 400 nm continually at 1 min gap for 30 min in a 96-well-plate using xMARK microplate spectrophotometer, Bio-Rad (USA). The inhibition activity of the controlled compound was considered as 100%. All the experiments were performed in triplicates of each used concentration, and the conclusions are expressed as a mean of the triplicate.
All thiosemicarbazones derivatives (3a–q) were tested against bovine carbonic anhydrase II (bCA-II).

bovine carbonic anhydrase II (bCA-II), sequence (P00921 whole entry): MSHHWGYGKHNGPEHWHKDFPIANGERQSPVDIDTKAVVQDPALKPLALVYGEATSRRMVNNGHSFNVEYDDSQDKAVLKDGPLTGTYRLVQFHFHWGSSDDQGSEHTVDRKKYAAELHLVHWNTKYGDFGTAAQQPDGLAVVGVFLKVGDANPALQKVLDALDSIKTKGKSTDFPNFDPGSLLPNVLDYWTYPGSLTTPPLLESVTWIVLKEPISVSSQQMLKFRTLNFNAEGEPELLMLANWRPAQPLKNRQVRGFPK

The compound `COc1cccc(NC(=S)N/N=C/C=C/c2ccc(N(C)C)cc2)c1` [3f, (E)-2-((E)-3-(4-(Dimethylamino)phenyl)allylidene)-N-(3-methoxyphenyl)hydrazine-1-carbothioamide] displayed a melting point of 198 °C. Also, in data set [1], it took 17.9 ± 1.23 µM to reach half-maximal inhibition (IC50) and the inhibition at 500 µM turned out to be 89.7%.
On to `CN(C)c1ccc(/C=C/C=N/NC(=S)Nc2cccc(F)c2)cc1` [3j, (E)-2-((E)-3-(4-(Dimethylamino)phenyl)allylidene)-N-(3-fluorophenyl)hydrazine-1-carbothioamide], for which the melting point came out at 218 °C. Also, in data set [1], the inhibition at 500 µM was under 50%.
On to `CN(C)c1ccc(/C=C/C=N/NC(=S)Nc2ccccc2F)cc1` [3e, (E)-2-((E)-3-(4-(Dimethylamino)phenyl)allylidene)-N-(2-fluorophenyl)hydrazine-1-carbothioamide], for which the melting point worked out at 189 °C. Besides, in data set [1], half-maximal inhibition (IC50) required 19.7 ± 0.23 µM and the inhibition at 500 µM worked out at 93.4%.
As to `CN(C)c1ccc(/C=C/C=N/NC(=S)Nc2ccccc2)cc1` [3p, (E)-2-((E)-3-(4-(Dimethylamino)phenyl)allylidene)-N-phenylhydrazine-1-carbothioamide], the melting point was 218 °C.
Take `CN(C)c1ccc(/C=C/C=N/NC(=S)NCc2ccc(F)cc2)cc1` [3n]: the melting point was 192 °C. In data set [1], the IC50 amounted to 10.3 ± 0.62 µM and the inhibition at 500 µM stood at 63.2%.
`CN(C)c1ccc(/C=C/C=N/NC(=S)Nc2ccc(Cl)cc2)cc1` [3m, (E)-N-(4-Chlorophenyl)-2-((E)-3-(4-(dimethylamino)phenyl)allylidene)hydrazine-1-carbothioamide] gave a melting point of 238 °C. Besides, in data set [1], the IC50 came to 14.7 ± 1.42 µM and the inhibition at 500 µM was 79.9%.
As to `Cc1ccc(NC(=S)N/N=C/C=C/c2ccc(N(C)C)cc2)c(C)c1` [3l, (E)-2-((E)-3-(4-(Dimethylamino)phenyl)allylidene)-N-(2,4-dimethylphenyl)hydrazine-1-carbothioamide], the melting point was determined as 232 °C. Besides, in data set [1], the IC50 came out at 18.3 ± 1.32 µM and the inhibition at 500 µM amounted to 78.2%.
The compound `CN(C)c1ccc(/C=C/C=N/NC(=S)NCc2ccc(Cl)cc2)cc1` [3k] showed a melting point of 196 °C.
As for `Cc1ccc(NC(=S)N/N=C/C=C/c2ccc(N(C)C)cc2)cc1` [3a, (E)-2-((E)-3-(4-(Dimethylamino)phenyl)allylidene)-N-(p-tolyl)hydrazine-1-carbothioamide], the melting point stood at 232 °C. For the same compound, in data set [1], the IC50 is 46.6 ± 0.62 µM and the inhibition at 500 µM was 82%.
The compound `CN(C)c1ccc(/C=C/C=N/NC(=S)NCCc2ccccc2)cc1` [3c] displayed a melting point of 180 °C.
Turning to `Cc1cccc(C)c1NC(=S)N/N=C/C=C/c1ccc(N(C)C)cc1` [3b, (E)-2-((E)-3-(4-(Dimethylamino)phenyl)allylidene)-N-(2,6-dimethylphenyl)hydrazine-1-carbothioamide], the melting point stood at 239 °C. In data set [1], the midpoint of inhibition, the IC50, lay at 40.4 ± 0.89 µM and the inhibition at 500 µM was 78.1%.
In turn, `CN(C)c1ccc(/C=C/C=N/NC(=S)Nc2cccc(Cl)c2Cl)cc1` [3d, (E)-N-(2,3-Dichlorophenyl)-2-((E)-3-(4-(dimethylamino)phenyl)allylidene)hydrazine-1-carbothioamide] returned a melting point of 192 °C. Moreover, in data set [1], the IC50 is 36.6 ± 0.15 µM and the inhibition at 500 µM came to 82.2%.
For the compound `CN(C)c1ccc(/C=C/C=N/NC(=S)Nc2ccc(Br)cc2)cc1` [3g, (E)-N-(4-Bromophenyl)-2-((E)-3-(4-(dimethylamino)phenyl)allylidene)hydrazine-1-carbothioamide], the melting point amounted to 240 °C. In data set [1], the IC50 was found to be 12.1 ± 1.01 µM and the inhibition at 500 µM came to 93%.
Taken in the same sequence, the figures for `CN(C)c1ccc(/C=C/C=N/NC(=S)Nc2ccc(F)cc2F)cc1` [3h, (E)-N-(2,4-Difluorophenyl)-2-((E)-3-(4-(dimethylamino)phenyl)allylidene)hydrazine-1-carbothioamide] were 202 °C, 13.4 ± 0.52 µM and 77.1%.
Compound `CN(C)c1ccc(/C=C/C=N/NC(=S)NC2CCCCC2)cc1` [3q, (E)-N-Cyclohexyl-2-((E)-3-(4-(dimethylamino)phenyl)allylidene)hydrazine-1-carbothioamide] came in with a melting point of 252 °C.
`CN(C)c1ccc(/C=C/C=N/NC(=S)Nc2cccc(C#N)c2)cc1` [3o, (E)-N-(3-Cyanophenyl)-2-((E)-3-(4-(dimethylamino)phenyl)allylidene)hydrazine-1-carbothioamide]: the melting point worked out at 215 °C. In data set [1], the IC50 was 21.8 ± 0.85 µM and the inhibition at 500 µM turned out to be 81.8%.
The matching figures for `CC(C)c1ccc(NC(=S)N/N=C/C=C/c2ccc(N(C)C)cc2)cc1` [3i, (E)-2-((E)-3-(4-(Dimethylamino)phenyl)allylidene)-N-(4-isopropylphenyl)hydrazine-1-carbothioamide]: 220 °C, 33.6 ± 0.42 µM and 84.9%.
